Results on 17 compounds are retold here after ChEMBL document CHEMBL4725445, “Discovery of a Cyclic Choline Analog That Inhibits Anaerobic Choline Metabolism by Human Gut Bacteria” (ACS Med Chem Lett, 2020).

Experiment [1] is described as follows: Inhibition of CutC in Escherichia coli MS 200-1 assessed as reduction in TMA formation incubated for 3.5 hrs under anaerobic condition in presence of d9-choline by LC-MS-MS analysis.
A short description of experiment [2]: Inhibition of Clostridium sporogenes CutC assessed as TMA formation by LC-MS/MS.
Experiment [3] is described as follows: Inhibition of Escherichia coli MS 69-1 CutC assessed as TMA formation by LC-MS/MS.
The nature of experiment [4]: Inhibition of Proteus mirabilis CutC assessed as TMA formation by LC-MS/MS.
The nature of experiment [5]: Inhibition of TMA formation in human fecal suspension by LC-MS/MS. Format: functional, tissue-based, Feces.
The nature of experiment [6]: Inhibition of Klebsiella sp. MS 92-3 CutC assessed as TMA formation by LC-MS/MS. Set-up: species or system Klebsiella pneumoniae.
The target in experiment [7] is T1, Choline trimethylamine-lyase (Desulfovibrio alaskensis, UniProt Q30W70).
T1 sequence (Q30W70 whole entry): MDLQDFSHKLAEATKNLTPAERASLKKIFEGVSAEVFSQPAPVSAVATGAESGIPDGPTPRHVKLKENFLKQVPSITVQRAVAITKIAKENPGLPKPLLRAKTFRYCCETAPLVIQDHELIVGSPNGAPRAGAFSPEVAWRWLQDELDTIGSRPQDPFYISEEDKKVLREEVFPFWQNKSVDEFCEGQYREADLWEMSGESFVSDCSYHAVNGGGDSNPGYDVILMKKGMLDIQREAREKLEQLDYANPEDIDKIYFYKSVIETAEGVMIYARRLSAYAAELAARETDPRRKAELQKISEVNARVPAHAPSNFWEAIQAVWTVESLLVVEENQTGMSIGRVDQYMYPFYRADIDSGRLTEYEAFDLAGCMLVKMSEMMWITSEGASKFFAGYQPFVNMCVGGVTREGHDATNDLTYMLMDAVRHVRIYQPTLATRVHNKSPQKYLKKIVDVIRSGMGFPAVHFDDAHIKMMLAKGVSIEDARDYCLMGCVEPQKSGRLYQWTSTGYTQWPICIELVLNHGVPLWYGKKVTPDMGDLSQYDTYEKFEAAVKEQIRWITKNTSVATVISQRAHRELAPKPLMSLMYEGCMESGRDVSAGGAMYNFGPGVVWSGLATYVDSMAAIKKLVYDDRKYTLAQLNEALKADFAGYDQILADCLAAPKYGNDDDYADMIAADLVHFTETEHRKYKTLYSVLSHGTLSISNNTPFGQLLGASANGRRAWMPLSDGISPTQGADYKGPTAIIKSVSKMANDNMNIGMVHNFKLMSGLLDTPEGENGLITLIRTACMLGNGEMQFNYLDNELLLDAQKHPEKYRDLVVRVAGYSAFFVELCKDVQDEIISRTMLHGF
In words: Inhibition of Desulfovibrio desulfuricans (strain G20) CutC assessed as reduction in TMA by spectrophotometry.

By IC50 is commonly meant the concentration that inhibits the measured activity by half.

Each structure is given as a SMILES string. A value given as a limit tells only on which side of the number the result lay.

Regarding `CN1CCC(O)CC1`, the IC50 in experiment [1] turned out to be 1600 µM.
For `CN1CC=C[C@H](O)C1`, the IC50 in experiment [2] is 12 µM; in experiment [3], 22 µM; in experiment [4], 92 µM; in experiment [5], 60 µM; in experiment [1], 9.8 µM; in experiment [6], 4 µM.
As for `CN1CCCC(=O)C1`, the values for the half-inhibitory concentration (IC50) in experiment [7] and in experiment [1] were over 10000 µM and 27000 µM, respectively.
Consider `CN1CCC(O)C1` (stereo not drawn), for which the IC50 in experiment [1] amounted to 6300 µM.
For the compound `CC1=CC(O)CN(C)C1` (stereo not drawn), the IC50 in experiment [1] stood at 920 µM.
With `OC1C=CCN(C2CCC2)C1` (stereo not drawn), the figures for the half-maximal inhibitory concentration (IC50) in experiment [7] and in experiment [1] were 200 µM and 190 µM, respectively.
In the case of `[2H]C1(O)C=CCN(C)C1` (stereo not drawn), the IC50 in experiment [1] is 30 µM.
On the same count and under the same terms, for `CN1CC=CC(O)C1` (stereo not drawn) the value was 10 µM.
Still for that read-out and setting: for `CC(=O)OC1C=CCN(C)C1` (stereo not drawn) the value was 1800 µM; for `C[N+]1(C)CC=CC(O)C1` (stereo not drawn), 7.6 µM; for `CCCN1CC=CC(O)C1` (stereo not drawn), 200 µM.
`CN1CC=C[C@@H](O)C1`: in experiment [1], the IC50 stood at 31 µM.
With `OC1C=CCOC1` (stereo not drawn), the IC50 in experiment [1] was found to be 80 µM.
For `OC1C=CCN(Cc2ccccc2)C1` (stereo not drawn), the concentration for half-maximal inhibition (IC50) in experiment [1] worked out at 370 µM.
For the compound `OC1C=CCCC1` (stereo not drawn), the IC50 in experiment [1] worked out at 260 µM.
Regarding `CN1CCCC(O)CC1` (stereo not drawn), in experiment [1], the 50% inhibitory concentration (IC50) turned out to be 760 µM.
Take `C[N+](C)(C)CC=O` [BETAINE ALDEHYDE]: the half-inhibitory concentration (IC50) turned out to be 1000 µM in experiment [2]; 465 µM in experiment [3]; 2490 µM in experiment [4]; 1270 µM in experiment [5]; 212 µM in experiment [6].
